Assay results taken from PubChem BioAssay (NCI).
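Briefly, cells in 96-well plates were exposed to five compound concentrations for 48 h, and endpoints were estimated by linear interpolation. TGI: total growth inhibition.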

Assays:
Assay in all cases: NCI-60 cell line screen, 48 h
[1] = test system: RXF 393 renal
[2] = test system: DU-145 prostate
[3] = test system: UACC-62 melanoma
[4] = test system: OVCAR-4 ovarian
[5] = test system: OVCAR-5 ovarian
[6] = test system: SNB-75 CNS
[7] = test system: MOLT-4 leukemia
[8] = test system: MDA-N
[9] = test system: HCT-15 colon
[10] = test system: COLO 205 colon
[11] = test system: SNB-19 CNS
[12] = test system: K-562 leukemia
[13] = test system: SK-OV-3 ovarian
[14] = test system: MALME-3M melanoma
[15] = test system: U251 CNS
[16] = test system: MDA-MB-231 breast
[17] = test system: T-47D breast
[18] = test system: UACC-257 melanoma
[19] = test system: M14 melanoma
[20] = test system: SN12C renal

**Q.** How did the TGI [1] turn out when `COc1cc(C=O)cc(C=Nc2ccc(S(N)(=O)=O)cc2)c1O` was run?
**A.** 14.5 µM

**Q.** What about the TGI [2] of the same compound?
**A.** > 100 µM

**Q.** What about the TGI [3] of the same compound?
**A.** > 100 µM

**Q.** And the TGI [4]?
**A.** > 100 µM

**Q.** What about the TGI [5] of the same compound?
**A.** > 100 µM

**Q.** What about the TGI [6] of the same compound?
**A.** > 100 µM

**Q.** What about the TGI [7] of the same compound?
**A.** 64.2 µM

**Q.** And the TGI [8]?
**A.** 28.1 µM

**Q.** What about the TGI [9] of the same compound?
**A.** > 100 µM

**Q.** What about the TGI [10] of the same compound?
**A.** 76.9 µM

**Q.** What about the TGI [11] of the same compound?
**A.** > 100 µM

**Q.** And the TGI [12]?
**A.** > 100 µM

**Q.** And the TGI [13]?
**A.** 7.93 µM

**Q.** And the TGI [14]?
**A.** 7.78 µM

**Q.** What about the TGI [15] of the same compound?
**A.** > 100 µM

**Q.** What about the TGI [16] of the same compound?
**A.** 76.4 µM

**Q.** What about the TGI [17] of the same compound?
**A.** > 100 µM

**Q.** What about the TGI [18] of the same compound?
**A.** 38.5 µM

**Q.** What about the TGI [19] of the same compound?
**A.** 14.6 µM

**Q.** What about the TGI [20] of the same compound?
**A.** 35.5 µM

**Q.** Which TGI [1] does the source give for `O=C(NN=C1CCCCC1)NN=C1CCCCC1` here?
**A.** > 100 µM

**Q.** What about the TGI [2] of the same compound?
**A.** > 100 µM

**Q.** What about the TGI [3] of the same compound?
**A.** > 100 µM

**Q.** And the TGI [4]?
**A.** > 100 µM

**Q.** And the TGI [5]?
**A.** > 100 µM

**Q.** What about the TGI [6] of the same compound?
**A.** > 100 µM

**Q.** What about the TGI [7] of the same compound?
**A.** > 100 µM

**Q.** What about the TGI [8] of the same compound?
**A.** > 100 µM

**Q.** And the TGI [9]?
**A.** > 100 µM

**Q.** What about the TGI [10] of the same compound?
**A.** > 100 µM

**Q.** And the TGI [11]?
**A.** > 100 µM

**Q.** And the TGI [12]?
**A.** > 100 µM

**Q.** What about the TGI [13] of the same compound?
**A.** > 100 µM

**Q.** And the TGI [14]?
**A.** > 100 µM

**Q.** What about the TGI [15] of the same compound?
**A.** > 100 µM

**Q.** And the TGI [16]?
**A.** > 100 µM

**Q.** What about the TGI [17] of the same compound?
**A.** > 100 µM

**Q.** What about the TGI [18] of the same compound?
**A.** > 100 µM

**Q.** What about the TGI [19] of the same compound?
**A.** > 100 µM

**Q.** And the TGI [20]?
**A.** > 100 µM
